The target of the test is T1, protein kinase Cα (PKCα) (Homo sapiens, UniProt P17252).
T1 construct: isolate and photo-release endogenous PKCa from the undiluted detergent fractionated HeLa cell extracts; endogenous in cells; host or cells: HeLa cells (ATCC)
Description: PMA-mediated PKCα sub-cellular translocation, measured by kinase activity after isolation with photocleavable antibodies. Type of test: cell-based. The note with it: cultured HeLa cells stimulated with 200 nM PMA for 5 min, detergent-fractionated, based on kinase activity, n=4. As to the method:
FIG. 20. Phorbol ester (PMA) mediated protein kinase Cα (PKCα) sub-cellular translocation as measured by functional activity following isolation with photocleavable antibodies. Cultured HeLa cells were stimulated with 200 nM PMA for 5 min and detergent fractionated into the cytosol and membrane compartments prior to isolation and purification with the photocleavable antibodies.
Cultured HeLa cells (ATCC; Manassas, Va.) were stimulated for 5 min with 200 nM Phorbol-12-Myristate-13-Acetate (PMA; EMD Biosciences, Inc., San Diego, Calif.) and subsequently detergent fractionated into sub-cellular compartments according to reported procedures [Ramsby et al. (1994) Electrophoresis 15, 265-277; Ramsby & Makowski. (1999) Methods Mol Biol 112, 53-66; Chiang et al. (2000) J Biochem Biophys Methods 46, 53-68]. PMA is a potent activator of PKCα and is well known to cause translocation of the kinase from the cytosolic to the membrane sub-cellular compartments [Ross & Joyner. (1997) Endothelium 5, 321-332; Bazan & Rapoport. (1996) JPharmacol Toxicol Methods 36, 87-95; Yazlovitskaya & Melnykovych. (1995) Cancer Lett 88, 179-183]. […]

Consider `CCCCCCCCCCCCCC(=O)O[C@@H]1[C@@H](C)[C@@]2(O)[C@@H](C=C(CO)C[C@]3(O)C(=O)C(C)=C[C@@H]23)[C@@H]2C(C)(C)[C@]12OC(C)=O` [PMA, Phorbol-12-Myristate-13-Acetate], for which, where the note is “baseline 21±2% membrane”, the “relative sub-cellular distribution of PKCα, membrane” value is recorded as 84±3%. Where the note is “baseline 79±7% cytosol”, the “relative sub-cellular distribution of PKCα, cytosol” value worked out at 16±4%.

The values above are taken from US20090270278A1, “Methods and compounds for making arrays” (AMBERGEN, Inc., priority 2007, published 2009).
